Source: paper PMC11345836 (Journal of Medicinal Chemistry, 2024)
Converted amounts (≈) assume the structure as drawn. Like-named read-outs stand apart in the source and are kept apart here.

How the values were obtained:
[1] = rat, p.o. 10 mg/kg, fed
[2] = Rat liver microsome stability; conditions: for microsomal CLint: rat, microsomes; for predicted hepatic clearance, rat: scaled from rat liver microsomes
Shake-flask LogD = type: physicochemical
[3] = 0.3–10 μM; cited from earlier work
[4] = 0.3–10 μM; cited from earlier work; remark: listed apart in the source
[5] = cited from earlier work
[6] = 2–200 μM; cited from earlier work
[7] = cited from earlier work; remark: listed apart in the source
[8] = cited from earlier work; remark: listed apart in the source
[9] = 0.3–10 μM; cited from earlier work; remark: listed apart in the source
[10] = NMR EXSY rotamer exchange kinetics; conditions: for Rotamer exchange in EXSY: 300 ms mixing time at 298 K; for Torsion Rotation t1/2: extrapolated to 298 K
[11] = cited from earlier work; remark: listed apart in the source
[12] = Solubility of solid forms; type: physicochemical
[13] = cited from earlier work; remark: listed apart in the source

With COC(=O)N[C@H](C(=O)N1C[C@H](C(F)(F)F)C[C@H]1C(=O)N[C@H](C#N)C[C@@H]1CCCNC1=O)C(C)C [Compound 12, Methyl ((S)-1-((2S,4R)-2-(((S)-1-cyano-2-((S)-2-oxopiperidin-3-yl)ethyl)carbamoyl)-4-(trifluoromethyl)pyrrolidin-1-yl)-3-methyl-1-oxobutan-2-yl)carbamate] the “Fa × Fg” value ([1]; 50% ASD) was 15.8 (17.1, 14.5) %, the “Oral F” value ([1]; 50% ASD) was 8.1 (8.8, 7.5) % and the “Fa × Fg” value ([1]; amorphous, solution) was 14.7 (12.3, 17.6) %. For the same compound, the “Oral F” value ([1]; amorphous, solution) was 7.7 (6.3,9.0) %, the microsomal CLint [2] was less than 5.8 µL/min/mg and the “predicted hepatic clearance, rat” value [2] was less than 11 mL/min/kg.

With CC(C)(C)[C@H](NC(=O)C(F)(F)F)C(=O)N1C[C@H](OC(F)F)C[C@H]1C(=O)N[C@H](C#N)C[C@@H]1CCNC1=O [Compound 6, (2S,4R)-N-((S)-1-Cyano-2-((S)-2-oxopyrrolidin-3-yl)ethyl)-4-(difluoromethoxy)-1-((S)-3,3-dimethyl-2-(2,2,2-trifluoroacetamido)butanoyl)pyrrolidine-2-carboxamide] the “Fa × Fg” value ([1]; 50% ASD) was 7.2 (7.3, 6.9) %, the “Oral F” value ([1]; 50% ASD) was 4.2 (4.3, 4.1) % and the “Fa × Fg” value ([1]; crystalline, suspension) was 20.2 (20.0, 20.4) %. For the same compound, the microsomal CLint [2] was less than 5.8 µL/min/mg and the “predicted hepatic clearance, rat” value [2] was less than 11 mL/min/kg.

For COC(=O)N[C@H](C(=O)N1C[C@H](OC(F)(F)F)C[C@H]1C(=O)N[C@H](C#N)C[C@@H]1CCNC1=O)C(C)(C)C [Compound 5, Methyl ((S)-1-((2S,4R)-2-(((S)-1-cyano-2-((S)-2-oxopyrrolidin-3-yl)ethyl)carbamoyl)-4-(trifluoromethoxy)pyrrolidin-1-yl)-3,3-dimethyl-1-oxobutan-2-yl)carbamate], the “Fa × Fg” value ([1]; amorphous, solution) was 12.2 (11.4, 13.2) %, the “Oral F” value ([1]; amorphous, solution) was 8.6 (8.0, 9.2) % and the microsomal CLint [2] was less than 5.8 µL/min/mg. For the same compound, the “predicted hepatic clearance, rat” value [2] was less than 11 mL/min/kg.

Cc1cnc(C(=O)N[C@H]2CCCCC/C=C\[C@@H]3C[C@@]3(C(=O)NS(=O)(=O)C3CC3)NC(=O)[C@@H]3C[C@@H](Oc4nc5ccccc5c5ccccc45)CN3C2=O)cn1 [paritaprevir] gave a logD (Shake-flask LogD) of 3.1.

Cc1cccc(C)c1OCC(=O)N[C@@H](Cc1ccccc1)[C@@H](O)C[C@H](Cc1ccccc1)NC(=O)[C@H](C(C)C)N1CCCNC1=O [lopinavir] gave a logD (Shake-flask LogD) of 3.8.

In the case of CC(C)(C)[C@H](NC(=O)C(F)(F)F)C(=O)N1C[C@H]2[C@@H]([C@H]1C(=O)N[C@H](C#N)C[C@@H]1CCNC1=O)C2(C)C [Compound 1, nirmatrelvir], the “fu,p monkey plasma” value [3] is given as 0.39–0.50, the “fu,p rat plasma” value [4] is given as 0.47–0.49 and the “observed CLp, rats” value [5] is given as 22.7 mL/min/kg. For the same compound, the “fu,p dog plasma” value [6] was 0.024–0.69, the “CLint,app, substrate depletion in HLM” value [7] was 28.8 µL/min/mg and the “predicted hepatic clearance, human” value ([7]; from substrate depletion in HLM) was 6.3 mL/min/kg. For the same compound, the “observed CLp, monkeys” value [8] was 15.8 mL/min/kg, the “fu,p human plasma” value [9] was 0.30–0.33 and the “Energy of Rotation” value ([10]; Form: Anhydrous) was 20.4 kcal/mol. The “Rotamer exchange in EXSY” value ([10]; Form: Anhydrous) was “No”, the “Torsion Rotation t1/2” value ([10]; Form: Anhydrous) was 10.54 min and the “Energy of Rotation” value ([10]; Form: MTBE) was 20.2 kcal/mol. For the same compound, the “Rotamer exchange in EXSY” value ([10]; Form: MTBE) was “No”, the “Torsion Rotation t1/2” value ([10]; Form: MTBE) was 10.99 min and the “predicted hepatic clearance, rats” value [11] was 5.8 mL/min/kg. The solubility ([12]; Form: Anhydrous) was 1200 µg/mL (≈ 2.4 mM), the solubility ([12]; Form: MTBE) was 7210 µg/mL (≈ 14.4 mM) and the “predicted hepatic clearance, monkeys” value [13] was 25 mL/min/kg.
